Biological target: NAMPT enzyme (Homo sapiens (Human), UniProt P43490)
Experiment: Enzyme Assay and NMN Detection (NAMPT reaction, fluorescence detection of NMN)
Type: biochemical
Conditions: NAMPT activation, NMN formation
Outline: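 Reaction in 50 mM HEPES pH 7.5, 5 mM MgCl2, 0.1% Prionex, 0.005% Tween 20, 1 mM TCEP at room temperature, with 16 nM NAMPT, 120 uM ATP, 5 uM nicotinamide, 6.25 uM PRPP, 0.04 U/ml pyrophosphatase for 2 h. Stopped with acetophenone/KOH then formic acid; NMN quantified by fluorescence (ex380/em460) against calibration curve.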

NAMPT enzyme, sequence (P43490 whole entry, species assumed): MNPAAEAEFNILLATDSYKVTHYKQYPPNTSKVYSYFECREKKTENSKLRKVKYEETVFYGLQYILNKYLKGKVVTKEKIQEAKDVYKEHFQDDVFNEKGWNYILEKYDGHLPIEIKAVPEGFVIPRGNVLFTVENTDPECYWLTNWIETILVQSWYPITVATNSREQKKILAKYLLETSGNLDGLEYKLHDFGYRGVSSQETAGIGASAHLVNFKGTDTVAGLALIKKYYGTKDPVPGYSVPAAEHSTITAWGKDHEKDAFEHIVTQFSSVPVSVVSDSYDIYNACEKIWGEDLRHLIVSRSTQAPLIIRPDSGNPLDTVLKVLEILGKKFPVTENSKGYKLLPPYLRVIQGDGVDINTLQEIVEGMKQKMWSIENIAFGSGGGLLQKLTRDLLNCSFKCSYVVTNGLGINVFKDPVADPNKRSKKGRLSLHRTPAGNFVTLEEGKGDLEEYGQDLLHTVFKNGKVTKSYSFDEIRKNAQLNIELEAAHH

Row | Compound | EC50 (Table B-2) [µM] | also measured
1 | O=C(NCc1ccncc1)Nc1ccc(C(=O)NCc2ccccc2F)cc1 [N-(2-fluorobenzyl)-4-(3-(pyridin-4-ylmethyl)ureido)benzamide] | 2 to 5 | 
2 | O=C(NCc1ccncc1)Nc1ccc(S(=O)(=O)NCc2ccccc2F)cc1 [N-(2-fluorobenzyl)-4-(3-(pyridin-4-ylmethyl)ureido)benzenesulfonamide] | 0.1 to 2 | 
3 | O=C(NCc1ccncc1)Nc1ccc(C(=O)Nc2ccccc2F)cc1 [N-(2-fluorophenyl)-4-(3-(pyridin-4-ylmethyl)ureido)benzamide] | 0.1 to 2 | 
4 | O=C(NCc1ccncc1)Nc1ccc(C(=O)NCCO)cc1 [N-(2-hydroxyethyl)-4-(3-(pyridin-4-ylmethyl)ureido)benzamide] | > 20 | 
5 | COc1ccccc1CNC(=O)c1ccc(NC(=O)NCc2ccncc2)cc1 [N-(2-methoxybenzyl)-4-(3-(pyridin-4-ylmethyl)ureido)benzamide] | > 20 | 
6 | COc1ccccc1CNS(=O)(=O)c1ccc(NC(=O)NCc2ccncc2)cc1 [N-(2-methoxybenzyl)-4-(3-(pyridin-4-ylmethyl)ureido)benzenesulfonamide] | 0.1 to 2 | 
7 | COCCNC(=O)c1ccc(NC(=O)NCc2ccncc2)cc1 [N-(2-methoxyethyl)-4-(3-(pyridin-4-ylmethyl)ureido)benzamide] | 2 to 5 | 
8 | COc1ccccc1NC(=O)c1ccc(NC(=O)NCc2ccncc2)cc1 [N-(2-methoxyphenyl)-4-(3-(pyridin-4-ylmethyl)ureido)benzamide] | 0.1 to 2 | 
9 | Cc1ccccc1CNC(=O)c1ccc(NC(=O)NCc2ccncc2)cc1 [N-(2-methylbenzyl)-4-(3-(pyridin-4-ylmethyl)ureido)benzamide] | 0.1 to 2 | 
10 | O=C(NCc1ccncc1)Nc1ccc(C(=O)NCCN2CCOCC2)cc1 [N-(2-morpholinoethyl)-4-(3-(pyridin-4-ylmethyl)ureido)benzamide] | 0.1 to 2 | 
11 | COc1ccc(NC(=O)c2ccc(NC(=O)NCc3ccncc3)cc2)cc1OC [N-(3,4-dimethoxyphenyl)-4-(3-(pyridin-4-ylmethyl)ureido)benzamide] | 0.1 to 2 | 
12 | Cc1ccc(NC(=O)c2ccc(NC(=O)NCc3ccncc3)cc2)cc1C [N-(3,4-dimethylphenyl)-4-(3-(pyridin-4-ylmethyl)ureido)benzamide] | 0.1 to 2 | 
13 | CN(C)c1cccc(NC(=O)c2ccc(NC(=O)NCc3ccncc3)cc2)c1 [N-(3-(dimethylamino)phenyl)-4-(3-(pyridin-4-ylmethyl)ureido)benzamide] | 0.1 to 2 | 
14 | O=C(NCc1ccncc1)Nc1ccc(S(=O)(=O)NCc2cccc(Cl)c2)cc1 [N-(3-Chloro-benzyl)-4-(3-pyridin-4-ylmethyl-ureido)-benzenesulfonamide] | 0.1 to 2 | 
15 | O=C(NCc1cn[nH]c1)Nc1ccc(C(=O)Nc2cccc(Cl)c2)cc1 [N-(3-Chloro-phenyl)-4-[3-(1H-pyrazol-4-ylmethyl)-ureido]-benzamide] |  | EC50 (Table B-1): 0.1 to 2 µM
16 | N#Cc1cccc(CNS(=O)(=O)c2ccc(NC(=O)NCc3ccncc3)cc2)c1 [N-(3-Cyano-benzyl)-4-(3-pyridin-4-ylmethyl-ureido)-benzenesulfonamide] | 0.1 to 2 | 
17 | CN(C)c1cccc(CNS(=O)(=O)c2ccc(NC(=O)NCc3ccncc3)cc2)c1 [N-(3-Dimethylamino-benzyl)-4-(3-pyridin-4-ylmethyl-ureido)-benzenesulfonamide] | 0.1 to 2 | 
18 | O=C(NCc1cn[nH]c1)Nc1ccc(S(=O)(=O)NCc2cccc(F)c2)cc1 [N-(3-Fluoro-benzyl)-4-[3-(1H-pyrazol-4-ylmethyl)-ureido]-benzenesulfonamide] |  | EC50 (Table B-4): 0.1 to 2 µM
19 | COc1cccc(CNS(=O)(=O)c2ccc(NC(=O)NCc3ccncc3)cc2)c1 [N-(3-Methoxy-benzyl)-4-(3-pyridin-4-ylmethyl-ureido)-benzenesulfonamide] | 0.1 to 2 | 
20 | COc1cccc(CNS(=O)(=O)c2ccc(NC(=O)NCc3cn[nH]c3)cc2)c1 [N-(3-Methoxy-benzyl)-4-[3-(1H-pyrazol-4-ylmethyl)-ureido]-benzenesulfonamide] |  | EC50 (Table B-1): 0.1 to 2 µM
21 | COc1cccc(NS(=O)(=O)c2ccc(NC(=O)NCc3ccncc3)cc2)c1 [N-(3-Methoxy-phenyl)-4-(3-pyridin-4-ylmethyl-ureido)-benzenesulfonamide] | 0.1 to 2 | 
22 | COCCCNS(=O)(=O)c1ccc(NC(=O)NCc2ccncc2)cc1 [N-(3-Methoxy-propyl)-4-(3-pyridin-4-ylmethyl-ureido)-benzenesulfonamide] | 0.1 to 2 | 
23 | Cc1cccc(CNS(=O)(=O)c2ccc(NC(=O)NCc3ccncc3)cc2)c1 [N-(3-Methyl-benzyl)-4-(3-pyridin-4-ylmethyl-ureido)-benzenesulfonamide] | 0.1 to 2 | 
24 | O=C(NCc1ccncc1)Nc1ccc(C(=O)NCc2cccc(Cl)c2)cc1 [N-(3-chlorobenzyl)-4-(3-(pyridin-4-ylmethyl)ureido)benzamide] | > 20 | 
25 | O=C(NCc1cn[nH]c1)Nc1ccc(NS(=O)(=O)Cc2ccccc2)cc1 [N-(4-(3-((1H-pyrazol-4-yl)methyl)ureido)phenyl)-1-phenylmethanesulfonamide] |  | EC50 (Table B-1): < 0.1 µM
26 | O=C(NCc1cn[nH]c1)Nc1ccc(S(=O)(=O)NCc2ccc(Cl)cc2)cc1 [N-(4-Chloro-benzyl)-4-[3-(1H-pyrazol-4-ylmethyl)-ureido]-benzenesulfonamide] |  | EC50 (Table B-1): 0.1 to 2 µM
27 | COc1ccc(CNS(=O)(=O)c2ccc(NC(=O)NCc3cn[nH]c3)cc2)cc1 [N-(4-Methoxy-benzyl)-4-[3-(1H-pyrazol-4-ylmethyl)-ureido]-benzenesulfonamide] |  | EC50 (Table B-1): < 0.1 µM
28 | Cc1ccc(CNS(=O)(=O)c2ccc(NC(=O)NCc3cn[nH]c3)cc2)cc1 [N-(4-Methyl-benzyl)-4-[3-(1H-pyrazol-4-ylmethyl)-ureido]-benzenesulfonamide] |  | EC50 (Table B-4): 0.1 to 2 µM

Further lines, with some results ahead:

Row | EC50 (Table B-2) [µM] | Compound | also measured
29 | 0.1 to 2 | O=C(NCc1ccncc1)Nc1ccc(C(=O)Nc2cccc(Cl)c2)cc1 [N-(3-chlorophenyl)-4-(3-(pyridin-4-ylmethyl)ureido)benzamide] | 
30 | 0.1 to 2 | CCOCCCNC(=O)c1ccc(NC(=O)NCc2ccncc2)cc1 [N-(3-ethoxypropyl)-4-(3-(pyridin-4-ylmethyl)ureido)benzamide] | 
31 | > 20 | O=C(NCc1ccncc1)Nc1ccc(C(=O)NCc2cccc(F)c2)cc1 [N-(3-fluorobenzyl)-4-(3-(pyridin-4-ylmethyl)ureido)benzamide] | 
32 | 0.1 to 2 | O=C(NCc1ccncc1)Nc1ccc(S(=O)(=O)NCc2cccc(F)c2)cc1 [N-(3-fluorobenzyl)-4-(3-(pyridin-4-ylmethyl)ureido)benzenesulfonamide] | 
33 | 0.1 to 2 | O=C(NCc1ccncc1)Nc1ccc(C(=O)Nc2cccc(F)c2)cc1 [N-(3-fluorophenyl)-4-(3-(pyridin-4-ylmethyl)ureido)benzamide] | 
34 | > 20 | COc1cccc(CNC(=O)c2ccc(NC(=O)NCc3ccncc3)cc2)c1 [N-(3-methoxybenzyl)-4-(3-(pyridin-4-ylmethyl)ureido)benzamide] | 
35 | 0.1 to 2 | COc1cccc(NC(=O)c2ccc(NC(=O)NCc3ccncc3)cc2)c1 [N-(3-methoxyphenyl)-4-(3-(pyridin-4-ylmethyl)ureido)benzamide] | 
36 | > 20 | Cc1cccc(CNC(=O)c2ccc(NC(=O)NCc3ccncc3)cc2)c1 [N-(3-methylbenzyl)-4-(3-(pyridin-4-ylmethyl)ureido)benzamide] | 
37 | 2 to 5 | Cc1cc(NC(=O)c2ccc(NC(=O)NCc3ccncc3)cc2)on1 [N-(3-methylisoxazol-5-yl)-4-(3-(pyridin-4-ylmethyl)ureido)benzamide] | 
38 | > 20 | Cc1nc(NS(=O)(=O)c2ccc(NC(=O)NCc3ccncc3)cc2)oc1C [N-(4,5-Dimethyl-oxazol-2-yl)-4-(3-pyridin-4-ylmethyl-ureido)-benzenesulfonamide] | 
39 | < 0.1 | CN(C)Cc1ccc(CNS(=O)(=O)c2ccc(NC(=O)NCc3ccncc3)cc2)cc1 [N-(4-((dimethylamino)methyl)benzyl)-4-(3-(pyridin-4-ylmethyl)ureido)benzenesulfonamide] | 
40 | 0.1 to 2 | CN(C)c1ccc(NC(=O)c2ccc(NC(=O)NCc3ccncc3)cc2)cc1 [N-(4-(dimethylamino)phenyl)-4-(3-(pyridin-4-ylmethyl)ureido)benzamide] | 
41 | > 20 | COCc1ccc(NC(=O)c2ccc(NC(=O)NCc3ccncc3)cc2)cc1 [N-(4-(methoxymethyl)phenyl)-4-(3-(pyridin-4-ylmethyl)ureido)benzamide] | 
42 | 0.1 to 2 | CN(C)c1ccc(CNS(=O)(=O)c2ccc(NC(=O)NCc3ccncc3)cc2)cc1 [N-(4-Dimethylamino-benzyl)-4-(3-pyridin-4-ylmethyl-ureido)-benzenesulfonamide] | 
43 | 0.1 to 2 | CS(=O)(=O)c1ccc(CNS(=O)(=O)c2ccc(NC(=O)NCc3ccncc3)cc2)cc1 [N-(4-Methanesulfonyl-benzyl)-4-(3-pyridin-4-ylmethyl-ureido)-benzenesulfonamide] | 
44 | 0.1 to 2 | COc1ccc(NS(=O)(=O)c2ccc(NC(=O)NCc3ccncc3)cc2)cc1 [N-(4-Methoxy-phenyl)-4-(3-pyridin-4-ylmethyl-ureido)-benzenesulfonamide] | 
45 | 0.1 to 2 | COCc1ccc(CNS(=O)(=O)c2ccc(NC(=O)NCc3ccncc3)cc2)cc1 [N-(4-Methoxymethyl-benzyl)-4-(3-pyridin-4-ylmethyl-ureido)-benzenesulfonamide] | 
46 | 0.1 to 2 | Cc1ccnc(NS(=O)(=O)c2ccc(NC(=O)NCc3ccncc3)cc2)n1 [N-(4-Methyl-pyrimidin-2-yl)-4-(3-pyridin-4-ylmethyl-ureido)-benzenesulfonamide] | 
47 | > 20 | O=C(NCc1ccncc1)Nc1ccc(C(=O)NCc2ccc(Cl)cc2)cc1 [N-(4-chlorobenzyl)-4-(3-(pyridin-4-ylmethyl)ureido)benzamide] | 
48 | 0.1 to 2 | O=C(NCc1ccncc1)Nc1ccc(S(=O)(=O)NCc2ccc(Cl)cc2)cc1 [N-(4-chlorobenzyl)-4-(3-(pyridin-4-ylmethyl)ureido)benzenesulfonamide] | 
49 | 0.1 to 2 | O=C(NCc1ccncc1)Nc1ccc(C(=O)Nc2ccc(Cl)cc2)cc1 [N-(4-chlorophenyl)-4-(3-(pyridin-4-ylmethyl)ureido)benzamide] | 
